# Reference: patent publication US7495104B2, “Quinoline or quinazoline derivatives inhibiting auto-phosphorylation of fibroblast growth factor receptors” (Kirin Beer Kabushiki Kaisha, priority 2001, dated 2009)
# pIC50: −log10 of the molar value.
# Target: Bek (Homo sapiens, UniProt P21802)
# Experiment: Inhibitory activity against Bek-autophosphorylation using ELISA method in OCUM-2MD3 cells
# Assay type: cell-based
# Conditions: 1 hr with compound, read-out: IC50 (concentration necessary for inhibiting 50% of Bek-phosphorylation)
# Protocol: Human scirrhus stomach cancer cells OCUM-2MD3 (kindly provided by Dr. Kosei Hirakawa, Osaka City University) were cultured in an RPMI medium containing 10% fetal calf serum (purchased from ICN) within a 5% carbon dioxide incubator until 50 to 90% confluent. The harvested cells were seeded onto 96-well flat-bottom plate in RPMI containing 0.1% fetal calf serum at 3.5×10^4 cells per well, followed by cultivation at 37° C. overnight. A solution of the test compound in dimethyl sulfoxide was added to each well, and the cultivation was continued at 37° C. for additional one hr. The medium was removed, and 50 μl of lysis buffer (20 mM HEPES (pH 7.4), 150 mM NaCl, 0.2% Triton X-100, 10% glycerol, 5 mM sodium orthovanadylate, 5 mM disodium ethylenediaminetetraacetate, and 2 mM Na4P2O7) was then added thereto. The mixture was shaken at 4° C. for 2 hr to prepare cell extracts.
# Separately, phosphate buffered saline (50 μl, pH 7.4) containing 5 μg/ml of anti-phospho-tyrosine antibody (PY20; purchased from Transduction Laboratories) was added to a microplate for ELISA (Maxisorp; purchased from NUNC), followed by standing at 4° C. overnight to form a solid phase on the wells. After washing of the plate, 300 μl of a blocking solution was added, followed by standing at room temperature for 2 hr to perform blocking. After washing, the whole quantity of the cell extracts was transferred to the wells, and the plate was then allowed to stand at 4° C. overnight. After washing, an anti-Bek antibody (Bek (C-17), purchased from Santa Cruz Biotechnology) or Anti-Human K-sam Rabbit IgG Affinity Purity (purchased from IBL Co., Ltd.) was allowed to react at room temperature for one hr, and, after washing, a peroxidase-labeled anti-rabbit Ig antibody (purchased from Amersham) was allowed to react at room temperature for one hr. After washing, a chromophoric substrate for peroxidase (purchased from Sumitomo Bakelite Co., Ltd.) was added thereto to initiate a reaction. After a suitable level of color development, a reaction termination solution was added to stop the reaction, and the absorbance at 450 nm was measured with a microplate reader. The Bek-phosphorylation activity for each well was determined by presuming the absorbance without the addition of the medicament to be 100% Bek-phosphorylation activity and the absorbance with the addition of a large excess of a positive control (N-{4-[(6,7-dimethoxy-4-quinolyl)oxy]phenyl}-N′-(3,3-dimethylbutyl)urea, 1000 nM) to be 0% Bek-phosphorylation activity. The concentration of the test compound was varied on several levels, the Bek-phosphorylation inhibitory activity was determined for each case, and the concentration of the test compound necessary for inhibiting 50% of Bek-phosphorylation (IC50) was calculated.
# Bek, sequence (P21802 431-767 limits assumed): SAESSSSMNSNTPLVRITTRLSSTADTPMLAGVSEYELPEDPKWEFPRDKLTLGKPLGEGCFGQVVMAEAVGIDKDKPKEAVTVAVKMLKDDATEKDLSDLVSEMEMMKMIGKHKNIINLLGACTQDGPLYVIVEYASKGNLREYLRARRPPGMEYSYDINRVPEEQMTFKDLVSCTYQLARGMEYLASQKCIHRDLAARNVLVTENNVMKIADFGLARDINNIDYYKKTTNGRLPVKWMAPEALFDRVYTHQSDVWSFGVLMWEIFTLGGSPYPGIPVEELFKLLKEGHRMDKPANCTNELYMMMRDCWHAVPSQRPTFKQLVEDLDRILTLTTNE
row,Compound,pIC50
1,"C=C[C@H]1CN2CCC1C[C@@H]2COc1cc2nccc(Oc3ccc(Nc4ccc(C(C)(C)C)cc4)cc3)c2cc1OC (stereo in doubt) [Compound 57, (4-Tert-butylphenyl)-{4-[6-methoxy-7-(5-vinyl-1-azabicyclo-[2.2.2]oct-2-ylmethoxy)quinolin-4-yloxy]phenyl}amine]",5.42
2,"COc1ccc(Nc2ccc(Oc3ccnc4cc(OC)c(OC)cc34)cc2)cc1 [Compound 1, [4-(6,7-Dimethoxyquinolin-4-yloxy)phenyl]-(4-methoxyphenyl)-amine]",5.41
3,"C=Cc1ccc(Nc2ccc(Oc3ccnc4cc(OC)c(OC)cc34)cc2)cc1 [Compound 2, [4-(6,7-Dimethoxyquinolin-4-yloxy)phenyl]-(4-vinylphenyl)amine]",5.10
4,"COc1cc2nccc(Oc3ccc(Nc4ccc(-c5ccccc5)cc4)cc3)c2cc1OC [Compound 3, Biphenyl-4-yl-[4-(6,7-dimethoxyquinolin-4-yloxy)phenyl]amine]",5.34
5,"COc1cc2nccc(Oc3ccc(Nc4ccc(F)cc4)cc3)c2cc1OC [Compound 4, [4-(6,7-Dimethoxyquinolin-4-yloxy)phenyl]-(4-fluorophenyl)amine]",5.43
6,"COc1cc2nccc(Oc3ccc(Nc4ccc(OC(F)(F)F)cc4)cc3)c2cc1OC [Compound 6, [4-(6,7-Dimethoxyquinolin-4-yloxy)phenyl]-(4-trifluoromethoxy-phenyl)amine]",6.06
7,"COc1cc2nccc(Oc3ccc(Nc4ccc(OCc5ccccc5)cc4)cc3)c2cc1OC [Compound 7, (4-Benzyloxyphenyl)-[4-(6,7-dimethoxyquinolin-4-yloxy)phenyl]-amine]",5.75
8,"CCCCc1ccc(Nc2ccc(Oc3ccnc4cc(OC)c(OC)cc34)cc2)cc1 [Compound 8, (4-Butylphenyl)-[4-(6,7-dimethoxyquinolin-4-yloxy)phenyl]amine]",5.82
9,"COc1cc(Oc2ccnc3cc(OC)c(OC)cc23)ccc1Nc1ccc(C(C)(C)C)cc1 [Compound 14, (4-Tert-butylphenyl)-[4-(6,7-dimethoxyquinolin-4-yloxy)-2-methoxyphenyl]amine]",5.72
10,"COc1cc2nccc(Oc3cc(C)c(Nc4ccc(C(C)(C)C)cc4)cc3C)c2cc1OC [Compound 17, (4-Tert-butylphenyl)-[4-(6,7-dimethoxyquinolin-4-yloxy)-2,5-dimethylphenyl]amine]",5.25
11,"COc1cc2c(Oc3ccc(Nc4ccc(C(C)(C)C)cc4)cc3)ccnc2cc1OCCCCl [Compound 23, (4-Tert-butylphenyl)-{4-[7-(3-chloropropoxy)-6-methoxyquinolin-4-yloxy]phenyl}amine]",6.12
12,"COc1cc2c(Oc3ccc(Nc4ccc(C(C)(C)C)cc4)cc3)ccnc2cc1OCCCCN1CCOCC1 [Compound 25, (4-Tert-butylphenyl)-{4-[6-methoxy-7-(4-morpholin-4-ylbutoxy)-quinolin-4-yloxy]phenyl}amine]",6.70
13,"COc1cc2c(Oc3ccc(Nc4ccc(C(C)(C)C)cc4)cc3)ccnc2cc1OCCC1CCCN1C (stereo not shown) [Compound 27, (4-Tert-butylphenyl)-(4-{6-methoxy-7-[2-(1-methylpyrrolidin-2-yl)ethoxy]quinolin-4-yloxy}phenyl)amine]",5.60
14,"COc1cc2c(Oc3ccc(Nc4ccc(C(C)(C)C)cc4)cc3)ccnc2cc1OCc1csc(C)n1 [Compound 28, (4-Tert-butylphenyl)-{4-[6-methoxy-7-(2-methylthiazol-4-ylmethoxy)quinolin-4-yloxy]phenyl}amine]",5.62
15,"COc1cc2c(Oc3ccc(Nc4ccc(C(C)(C)C)cc4)cc3)ccnc2cc1OCCCCN1CCN(C)CC1 [Compound 29, (4-Tert-butylphenyl)-(4-{6-methoxy-7-[4-(4-methylpiperazin-1-yl)butoxy]quinolin-4-yloxy}phenyl)amine]",6.03
16,"COc1cc2nccc(Oc3ccc(Oc4ccc(C(C)(C)C)cc4)cc3)c2cc1OC [Compound 30, 4-[4-(4-Tert-butylphenoxy)phenoxy]-6,7-dimethoxyquinoline]",5.49
17,"COc1cc2nccc(Oc3ccc(C(OC(C)=O)c4ccc(C(C)(C)C)cc4)cc3)c2cc1OC (stereo not shown) [Compound 31, (4-Tert-butylphenyl)-[4-(6,7-dimethoxyquinolin-4-yloxy)phenyl]methyl acetate]",6.00

# Results, then the compound that gave them:
row,pIC50,Compound
1,6.49,"COc1cc2nccc(Oc3ccc(Nc4ccc(C(C)(C)C)cc4)cc3)c2cc1OC [Compound 5, (4-Tert-butylphenyl)-[4-(6,7-dimethoxyquinolin-4-yloxy)phenyl]amine]"
2,6.50,"COc1cc2nccc(Oc3ccc(Nc4ccc(C(C)C)cc4)cc3)c2cc1OC [Compound 9, [4-(6,7-Dimethoxyquinolin-4-yloxy)phenyl]-(4-isopropylphenyl)-amine]"
3,6.20,"COc1cc2nccc(Oc3ccc(Nc4ccc(C5CCCCC5)cc4)cc3)c2cc1OC [Compound 10, (4-Cyclohexylphenyl)-[4-(6,7-dimethoxyquinolin-4-yloxy)phenyl]-amine]"
4,6.49,"COc1cc2nccc(Oc3ccc(Nc4ccc(C(C)(C)C)cc4)c(Cl)c3)c2cc1OC [Compound 11, (4-Tert-butylphenyl)-[2-chloro-4-(6,7-dimethoxyquinolin-4-yloxy)phenyl]amine]"
5,6.54,"COc1cc2nccc(Oc3ccc(Nc4ccc(C(C)(C)C)cc4)cc3Cl)c2cc1OC [Compound 12, (4-Tert-butylphenyl)-[3-chloro-4-(6,7-dimethoxyquinolin-4-yloxy)phenyl]amine]"
6,6.55,"COc1cc2nccc(Oc3ccc(Nc4ccc(C(C)(C)C)cc4)c(C)c3)c2cc1OC [Compound 13, (4-Tert-butylphenyl)-[4-(6,7-dimethoxyquinolin-4-yloxy)-2-methylphenyl]amine]"
7,6.37,"COc1cc2nccc(Oc3ccc(Nc4ccc(C(C)(C)C)cc4)cc3OC)c2cc1OC [Compound 15, (4-Tert-butylphenyl)-[4-(6,7-dimethoxyquinolin-4-yloxy)-3-methoxyphenyl]amine]"
8,6.62,"COc1cc2nccc(Oc3ccc(Nc4ccc(C(C)(C)C)cc4)c(C)c3C)c2cc1OC [Compound 16, (4-Tert-butylphenyl)-[4-(6,7-dimethoxyquinolin-4-yloxy)-2,3-dimethylphenyl]amine]"
9,6.81,"COc1cc2nccc(Oc3ccc(Nc4ccc(C(C)(C)C)cc4)cc3F)c2cc1OC [Compound 18, (4-Tert-butylphenyl)-[4-(6,7-dimethoxyquinolin-4-yloxy)-3-fluorophenyl]amine]"
10,6.71,"COc1cc2nccc(Oc3ccc(Nc4ccc(C(C)(C)C)cc4)c(F)c3)c2cc1OC [Compound 19, (4-Tert-butylphenyl)-[4-(6,7-dimethoxyquinolin-4-yloxy)-2-fluorophenyl]amine]"
11,6.49,"COc1cc2nccc(Oc3ccc(N(C)c4ccc(C(C)(C)C)cc4)cc3)c2cc1OC [Compound 20, (4-Tert-butylphenyl)-[4-(6.7-dimethoxyquinolin-4-yloxy)phenyl]-methylamine]"
12,6.48,"COc1cc2c(Oc3ccc(Nc4ccc(C(C)(C)C)cc4)cc3)ccnc2cc1O [Compound 21, 4-[4-(4-Tert-butylphenylamino)phenoxy]-6-methoxy-quinolin-7-ol]"
13,6.72,"COc1cc2c(Oc3ccc(Nc4ccc(C(C)(C)C)cc4)cc3)ccnc2cc1OCCCl [Compound 22, (4-Tert-butylphenyl)-{4-[7-(2-chloroethoxy)-6-methoxyquinolin-4-yloxy]phenyl}amine]"
14,6.74,"COc1cc2c(Oc3ccc(Nc4ccc(C(C)(C)C)cc4)cc3)ccnc2cc1OCCCN1CCOCC1 [Compound 24, (4-Tert-butylphenyl)-{4-[6-methoxy-7-(3-morpholin-4-ylpropoxy)quinolin-4-yloxy]phenyl}amine]"
15,6.50,"COc1cc2c(Oc3ccc(Nc4ccc(C(C)(C)C)cc4)cc3)ccnc2cc1OCCC(N)=O [Compound 26, 3-{4-[4-(4-Tert-butylphenylamino)phenoxy]-6-methoxyquinolin-7-yloxy}propionamide]"
16,6.16,"COc1cc2nccc(Oc3ccc(Cc4ccc(C(C)(C)C)cc4)cc3)c2cc1OC [Compound 32, 4-[4-(4-Tert-butylbenzyl)phenoxy]-6,7-dimethoxyquinoline]"
17,6.81,"COc1cc2c(Oc3ccc(Nc4ccc(C(C)(C)C)cc4)cc3)ccnc2cc1OCCN1CCN(C)CC1 [Compound 33, (4-Tert-butylphenyl)-(4-{6-methoxy-7-[2-(4-methylpiperazin-1-yl)ethoxy]quinolin-4-yloxy}phenyl)amine]"
